From patent US7468281B2, “Hollow fiber membrane sample preparation devices” (priority 2001, dated 2008)
Values joined by “and” are separate entries in the source; they are usually repeats but may differ in a detail not shown here. Equal entries are not always repeated. Where two headings read alike, the source gives them in different places.

Tests used:
[1] = LPME of seven basic drugs with different hollow fibres (polypropylene, polysulfone); type: physicochemical
[2] = LPME of eight basic drugs from water with phosphate buffer acceptors of different pH, CE analysis; type: physicochemical
[3] = LPME of drugs from human plasma, urine and whole blood with vial format device, CZE analysis; type: physicochemical
[4] = LPME of seven basic drugs from water with different acidic acceptor phases, CE analysis; type: physicochemical
[5] = LPME with different supported liquid membrane liquids, 96 well format device, HPLC analysis; conditions: 0.1 M hydrochloric acid acceptor, 30 min
Source text: A mixture of acidic and basic drugs was used in this study, together with 0.1 M hydrochloric acid or 0.1 M sodium hydroxide as the acceptor phase.
Four different membrane forming small molecular weight organic liquids were investigated for selectivity differences, viz. hexyl ether, 4-nitrophenyl octyl ether, 1-octanol and 2-octyl-1-dodecanol. […] A cover plate of a 96 well block, carrying polypropylene fiber of 8 cm length, 600 μm inner diameter and 0.2 μm pore size, was dipped into each of these pure liquids for 5 seconds. These liquids were contained in different wells of a 96 well plate. The fibers in the cover plate were then washed by sonication in water for 15 seconds to remove excess material sticking to the fibers. A five component mixture of acidic and basic drugs was prepared from acetaminophen, naproxen, bamethane, quinidine and doxepin. Concentrations of the stock drug solutions were 1.0 mg/mL in each case. […] This is to maintain roughly the same level of analytical signal with each of these drugs. The mixture was diluted to 20 mL with water so that the concentrations of the three dilute drugs is in the range of 1 μg/mL, while those of the more concentrated drugs is in the range of 5 μg/mL. 500 μL of this diluted mixture of drugs is further diluted eight fold (to 4 mL) with water containing 250 μL of 2.0 M sodium hydroxide and used for extraction. […] The acceptor solution consisted of 25 μL of 0.1 M hydrochloric acid in each case. Extraction time with vibration was 30 min for each membrane liquid. The enriched acceptor solution was diluted three fold in each case and 25 μL of the resulting diluted solution used for analysis by high performance liquid chromatography on a Omnisphere C18 column using acetonitrile/pH 7.0 dipotassium hydrogen phosphate as mobile phase. A gradient from 5% acetonitrile to 40% was used to elute the strongly retained components in a reasonable time frame.

[6] = 10 mM phosphate buffer acceptor pH 2.5, 60 minutes
[7] = 10 mM phosphate buffer acceptor pH 3.5, 60 minutes
[8] = acceptor phase 10 mM CH3COOH, measured pH 3.3, water sample, 100 ng/mL
[9] = acceptor phase 10 mM H2S04, measured pH 2.1, water sample, 100 ng/mL
[10] = acceptor phase 10 mM H3PO4, measured pH 2.5, water sample, 100 ng/mL
[11] = acceptor phase 10 mM HCOOH, measured pH 3.1, water sample, 100 ng/mL
[12] = acceptor phase 10 mM HCl, measured pH 2.1, water sample, 100 ng/mL
[13] = acceptor phase 10 mM HNO3, measured pH 1.9, water sample, 100 ng/mL
[14] = acceptor phase 10 mM acetate, measured pH 4.8, water sample, 100 ng/mL
[15] = acceptor phase 10 mM phosphate, measured pH 3.3, water sample, 100 ng/mL
[16] = acceptor phase 100 mM CH3COOH, measured pH 2.7, water sample, 100 ng/mL
[17] = acceptor phase 100 mM H2S04, measured pH 1.3, water sample, 100 ng/mL
[18] = acceptor phase 100 mM H3PO4, measured pH 1.8, water sample, 100 ng/mL
[19] = acceptor phase 100 mM HCOOH, measured pH 2.3, water sample, 100 ng/mL
[20] = acceptor phase 100 mM HCl, measured pH 1.2, water sample, 100 ng/mL
[21] = acceptor phase 100 mM phosphate, measured pH 3.0, water sample, 100 ng/mL
[22] = 10 mM phosphate buffer acceptor pH 4.5, 60 minutes
[23] = 10 mM phosphate buffer acceptor pH 5.5, 60 minutes
[24] = 10 mM phosphate buffer acceptor pH 6.5, 60 minutes
[25] = 10 mM phosphate buffer acceptor pH 7.5, 60 minutes
[26] = hollow fibre Polypropylene, 280 μm ID, hexyl ether, 0.01 M hydrochloric acid acceptor
[27] = hollow fibre Polypropylene, 600 μm ID, hexyl ether, 0.01 M hydrochloric acid acceptor
[28] = hollow fibre Polysulfone, 500 μm ID, hexyl ether, 0.01 M hydrochloric acid acceptor
[29] = human plasma 250 μL, hexyl ether membrane, 0.01 M hydrochloric acid acceptor, 30 minutes
[30] = human urine or plasma 2.5 mL, 1-octanol membrane, 0.1M hydrochloric acid acceptor, 45 minutes
[31] = human whole blood 250 μL, hexyl ether membrane, 0.01 M hydrochloric acid acceptor, 30 minutes
[32] = human urine 2.0 mL, hexyl ether, 0.01 M hydrochloric acid acceptor, 45 minutes
[33] = acceptor phase 100 mM HNO3, measured pH 1.1, water sample, 100 ng/mL
[34] = human plasma 0.5 mL, hexyl ether, 0.1 M hydrochloric acid (17 μL) acceptor, 45 minutes, tramadol example
[35] = supported liquid membrane 1-octanol
[36] = supported liquid membrane 2-octyl-1-dodecanol
[37] = supported liquid membrane 4-nitrophenyl octyl ether
[38] = supported liquid membrane Hexyl Ether
[39] = human plasma, same fashion as tramadol example, running buffer 75 mM phosphate pH 3.0 + triethylamine + hydroxypropyl-β-cyclodextrin

Structure (SMILES): O=C(CCCN1CCC(O)(c2ccc(Cl)cc2)CC1)c1ccc(F)cc1 [haloperidol]
- Enrichment (average of 3 replicates) [1]: 131

Structure (SMILES): COc1ccc2c(c1OC)C(=O)O[C@@H]2[C@H]1c2c(cc3c(c2OC)OCO3)CCN1C [noscapin]
- Enrichment (average of 3 replicates) [2, 6]: 8
- Enrichment (average of 3 replicates) [2, 7]: 2

Structure (SMILES): COc1ccc2cc([C@H](C)C(=O)O)ccc2c1 [Naproxen, naproxen]
- Enrichment [3]: 82 fold

Structure (SMILES): CN[C@@H](C)Cc1ccccc1 [methamphetamine]
- Enrichment (average of 3 replicates) [4, 8]: 93
- Enrichment (average of 3 replicates) [4, 9]: 141
- Enrichment (average of 3 replicates) [4, 10]: 96
- Enrichment (average of 3 replicates) [4, 11]: 106
- Enrichment (average of 3 replicates) [4, 12]: 122
- Enrichment (average of 3 replicates) [4, 13]: 125
- Enrichment (average of 3 replicates) [4, 14]: 128
- Enrichment (average of 3 replicates) [4, 15]: 136
- Enrichment (average of 3 replicates) [4, 16]: 77
- Enrichment (average of 3 replicates) [4, 17]: 134
- Enrichment (average of 3 replicates) [4, 18]: 83
- Enrichment (average of 3 replicates) [4, 19]: 13
- Enrichment (average of 3 replicates) [4, 20]: 120
- Enrichment (average of 3 replicates) [4, 21]: 133
- Enrichment (average of 3 replicates) [2, 6]: 150
- Enrichment (average of 3 replicates) [2, 7]: 146
- Enrichment (average of 3 replicates) [2, 22]: 150
- Enrichment (average of 3 replicates) [2, 23]: 134
- Enrichment (average of 3 replicates) [2, 24]: 122
- Enrichment (average of 3 replicates) [2, 25]: 88
- Enrichment (average of 3 replicates) [1, 26]: 123
- Enrichment (average of 3 replicates) [1, 27]: 122
- Enrichment (average of 3 replicates) [1, 28]: 46
- Enriched to the extent of ([1]; polypropylene fiber, 600 μm inner diameter, hexyl ether, 0.01 M hydrochloric acid): 82%
- Recovered/enriched to the extent of ([1]; polysulfone fiber, 500 μm inner diameter, hexyl ether, 0.01 M hydrochloric acid): 22%
- Enrichment [3, 29]: 8.1
- Extraction efficiency [3, 29]: 81%
- Enrichment [3, 30]: 75 fold
- Extraction efficiency [3, 30]: 75%
- Enrichment ([3]; human whole blood 2.5 mL, 280 μm ID polypropylene fiber, hexyl ether, 17 μL 0.1 M hydrochloric acid acceptor, 30 minutes): one hundred
- Enrichment [3, 31]: 7.8
- Extraction efficiency [3, 31]: 78%

Structure (SMILES): CC(N)Cc1ccccc1 (stereo not drawn) [amphetamine]
- Enrichment (average of 3 replicates) [4, 8]: 66
- Enrichment (average of 3 replicates) [4, 9]: 104
- Enrichment (average of 3 replicates) [4, 10]: 72
- Enrichment (average of 3 replicates) [4, 11]: 72
- Enrichment (average of 3 replicates) [4, 12]: 82
- Enrichment (average of 3 replicates) [4, 13]: 48
- Enrichment (average of 3 replicates) [4, 14]: 90
- Enrichment (average of 3 replicates) [4, 15]: 123
- Enrichment (average of 3 replicates) [4, 16]: 48
- Enrichment (average of 3 replicates) [4, 17]: 98
- Enrichment (average of 3 replicates) [4, 18]: 58
- Enrichment (average of 3 replicates) [4, 19]: 5
- Enrichment (average of 3 replicates) [4, 20]: 74
- Enrichment (average of 3 replicates) [4, 21]: 128
- Enrichment (average of 3 replicates) [2, 6]: 107
- Enrichment (average of 3 replicates) [2, 7]: 102
- Enrichment (average of 3 replicates) [2, 22]: 104
- Enrichment (average of 3 replicates) [2, 23]: 93
- Enrichment (average of 3 replicates) [2, 24]: 88
- Enrichment (average of 3 replicates) [2, 25]: 64
- Enrichment (average of 3 replicates) [1, 26]: 104
- Enrichment (average of 3 replicates) [1, 27]: 82
- Enrichment (average of 3 replicates) [1, 28]: 22
- Enrichment [3, 32]: 77
- Extraction efficiency [3, 32]: 97%

Structure (SMILES): CCC(=O)C(CC(C)N(C)C)(c1ccccc1)c1ccccc1 (stereo not drawn) [methadone]
- Enrichment (average of 3 replicates) [4, 8]: 86
- Enrichment (average of 3 replicates) [4, 9]: 157
- Enrichment (average of 3 replicates) [4, 10]: 96
- Enrichment (average of 3 replicates) [4, 11]: 114
- Enrichment (average of 3 replicates) [4, 12]: 138
- Enrichment (average of 3 replicates) [4, 13]: 141
- Enrichment (average of 3 replicates) [4, 14]: 42
- Enrichment (average of 3 replicates) [4, 15]: 134
- Enrichment (average of 3 replicates) [4, 16]: 84
- Enrichment (average of 3 replicates) [4, 17]: 150
- Enrichment (average of 3 replicates) [4, 18]: 77
- Enrichment (average of 3 replicates) [4, 19]: 91
- Enrichment (average of 3 replicates) [4, 20]: 134
- Enrichment (average of 3 replicates) [4, 33]: 107
- Enrichment (average of 3 replicates) ([4]; acceptor phase 100 mM acetate, measured pH 4.8, water sample, 100 ng/mL): 42
- Enrichment (average of 3 replicates) [4, 21]: 117
- Enrichment (average of 3 replicates) [1, 26]: 138
- Enrichment (average of 3 replicates) [1, 27]: 138
- Enrichment (average of 3 replicates) [1, 28]: 139
- Enrichment [3, 29]: 6.4
- Enrichment [3, 31]: 5.4

Structure (SMILES): COc1cccc(C2(O)CCCCC2CN(C)C)c1 (stereo not drawn) [Tramadol, tramadol]
- Enrichment [3, 34]: 30 fold
- Extraction efficiency [3, 34]: 100%

Structure (SMILES): CC(CN1c2ccccc2Sc2ccccc21)N(C)C (stereo not drawn) [promethazine]
- Enrichment [3, 29]: 5.5
- Extraction efficiency [3, 29]: 55%
- Enrichment [3, 31]: 4.3
- Extraction efficiency [3, 31]: 43%

Structure (SMILES): CCOC(=O)C1(c2ccccc2)CCN(C)CC1 [pethidine]
- Enrichment (average of 3 replicates) ([4]; pH 1.1): 64
- Enrichment (average of 3 replicates) ([4]; pH 1.2): 139
- Enrichment (average of 3 replicates) ([4]; pH 1.3): 141
- Enrichment (average of 3 replicates) ([4]; pH 1.8): 90
- Enrichment (average of 3 replicates) ([4]; pH 1.9): 106
- Enrichment (average of 3 replicates) ([4]; pH 2.1): 128 and 144
- Enrichment (average of 3 replicates) ([4]; pH 2.3): 106
- Enrichment (average of 3 replicates) ([4]; pH 2.5): 98
- Enrichment (average of 3 replicates) ([4]; pH 2.7): 90
- Enrichment (average of 3 replicates) ([4]; pH 3): 131
- Enrichment (average of 3 replicates) ([4]; pH 3.1): 115
- Enrichment (average of 3 replicates) ([4]; pH 3.3): 96 and 139
- Enrichment (average of 3 replicates) ([4]; pH 4.8): 106 and 91
- Enrichment (average of 3 replicates) ([2]; pH 2.5): 160
- Enrichment (average of 3 replicates) ([2]; pH 3.5): 147
- Enrichment (average of 3 replicates) ([2]; pH 4.5): 131
- Enrichment (average of 3 replicates) ([2]; pH 5.5): 90
- Enrichment (average of 3 replicates) ([2]; pH 6.5): 34
- Enrichment (average of 3 replicates) ([2]; pH 7.5): 6
- Enrichment (average of 3 replicates) [1]: 125 and 128 and 122
- Enrichment [3]: 74%/7.4 and 72%/7.2
- Extraction efficiency [3]: 74%/7.4 and 72%/7.2

Structure (SMILES): C=C[C@H]1C[N@@]2CC[C@H]1C[C@@H]2[C@@H](O)c1ccnc2ccc(OC)cc12 [quinidine]
- Enrichment [5, 35]: 100
- Enrichment [5, 36]: 20
- Enrichment [5, 37]: 52
- Enrichment [5, 38]: 100

Structure (SMILES): CN1C(=O)CN=C(c2ccccc2)c2cc(Cl)ccc21 [diazepam]
- Enrichment (average of 3 replicates) ([2]; pH 2.5): 3
- Enrichment (average of 3 replicates) ([2]; pH 3.5): 2

Structure (SMILES): CN(C)CCC=C1c2ccccc2COc2ccccc21 [doxepin]
- Enrichment [5, 35]: 58
- Enrichment [5, 36]: 147
- Enrichment [5, 37]: 227
- Enrichment [5, 38]: 202

Structure (SMILES): CN1CCN2c3ccccc3Cc3ccccc3C2C1 (stereo not drawn) [Mianserine, mianserine]
- Enrichment [3, 39]: 15 fold
- Extraction efficiency [3, 39]: 50%

Structure (SMILES): CNCCCC1(c2ccc(F)cc2)OCc2cc(C#N)ccc21 (stereo not drawn) [N-desmethyl metabolite, N-desmethylcitalopram]
- Preconcentration ([3]; patient plasma 1 mL, hexyl ether membrane, 20 mM phosphate buffer pH 2.75 acceptor, 45 minutes): 30 fold

Structure (SMILES): CN1CCN(C(c2ccccc2)c2ccc(Cl)cc2)CC1 (stereo not drawn) [chlorcyclizine]
- Enrichment (average of 3 replicates) [4, 8]: 32
- Enrichment (average of 3 replicates) [4, 9]: 122
- Enrichment (average of 3 replicates) [4, 10]: 118
- Enrichment (average of 3 replicates) [4, 11]: 72
- Enrichment (average of 3 replicates) [4, 12]: 126
- Enrichment (average of 3 replicates) [4, 13]: 120
- Enrichment (average of 3 replicates) [4, 14]: 3
- Enrichment (average of 3 replicates) [4, 15]: 83
- Enrichment (average of 3 replicates) [4, 16]: 66
- Enrichment (average of 3 replicates) [4, 17]: 136
- Enrichment (average of 3 replicates) [4, 18]: 80
- Enrichment (average of 3 replicates) [4, 19]: 93
- Enrichment (average of 3 replicates) [4, 20]: 138
- Enrichment (average of 3 replicates) [4, 33]: 136
- Enrichment (average of 3 replicates) [4, 21]: 93
- Enrichment (average of 3 replicates) [2, 6]: 123
- Enrichment (average of 3 replicates) [2, 7]: 32
- Enrichment (average of 3 replicates) [2, 22]: 5
- Enrichment (average of 3 replicates) [1, 26]: 106
- Enrichment (average of 3 replicates) [1, 27]: 126
- Enrichment (average of 3 replicates) [1, 28]: 110
- Enrichment ([3]; human plasma 2.0 mL, hexyl ether, 0.01 M hydrochloric acid acceptor, 45 minutes): 52

Structure (SMILES): COC(=O)[C@H]1[C@H]2C[C@@H]3c4[nH]c5cc(OC)ccc5c4CCN3C[C@H]2C[C@@H](OC(=O)c2cc(OC)c(OC)c(OC)c2)[C@@H]1OC [reserpin]
- Enrichment (average of 3 replicates) [2, 6]: 18
- Enrichment (average of 3 replicates) [2, 7]: 2
